Consider one compound from patent publication US10030064B2, “Mammalian cell culture processes for protein production” (priority 2009, dated 2018).

In the assay the test system is CHO cells. Description: Fed-batch 7-L, 500-L and 5000-L bioreactors with dexamethasone in the feed medium (Example 5). In kind it is cell-based, Chinese hamster. Here is the method: The CHO cell line used in this study was subcloned from DG44 parental cells and cultured in a proprietary growth medium.
Bioreactor experiments were performed in 7-L, 500-L and 5000-L bioreactors with starting working volumes around 3 L, 300 L and 3000 L, respectively. All the bioreactor runs started at 37° C. and shifted to lower temperature when cells entered production phase in order to extend the cell culture period. pH, and dissolved oxygen were maintained at 7.05, and 50% air saturation. Agitation rates for 7-L, 500-L and 5000-L scales are 180, 75 and 60 rpm respectively. All the bioreactor experiments were conducted in a fed batch mode with daily feeding of a protein-free medium in order to maintain the glucose and other nutrients at certain levels. […] Samples were taken during the cell culture process and analyzed for cell density, cell viability, substrates and metabolites.
The titer, sialic acid and HMW content assay were performed as described in the previous examples.

Take `C[C@@H]1C[C@H]2[C@@H]3CCC4=CC(=O)C=C[C@]4(C)[C@@]3(F)[C@@H](O)C[C@]2(C)[C@@]1(O)C(=O)CO` [DEX, dexamethasone]: where the note is “7-L scale”, the “Day 14 average viability” value came to 88%, the “Day 14 titer (normalized value)” value worked out at 13.2 and the “Peak sialic acid level (normalized value)” value stood at 16.0. For the same compound, under “500-L scale”, the “Day 14 average viability” value worked out at 84%, the “Day 14 titer (normalized value)” value was 11.6 and the “Peak sialic acid level (normalized value)” value was determined as 18.0. Moreover, under “5000-L scale”, the “Day 14 average viability” value came to 91%, the “Day 14 titer (normalized value)” value was determined as 13.6 and the “Peak sialic acid level (normalized value)” value turned out to be 19.0. For the same compound, where the note is “all scales”, the “drop of sialic acid by the end of the runs” value is “approximately 2.6 units”.
